Reference: patent US5128493A, “Platinum complexes” (Nippon Kayaku Kabushiki Kaisha, priority 1987, dated 1992)

Key:
[1] = tested on: Mouse leukemia L1210 cells; assay: Growth inhibitory activity against cultured tumor cells, L1210; type: cell-based; conditions: Tumor cell L1210; RPMI 1640, 10% fetal calf serum
Experimental: (§1) Test of Growth Inhibitory Activity Against Various Kinds of Cultured Tumor Cells
(§2) Mouse leukemia L1210 cells were cultured in a RPMI 1640 medium containing 10% of fetal calf serum and mouse Lewis lung carcinoma (LL) cells were cultured in a RPMI 1640 medium containing 10% fetal calf serum and 100 μg/ml of Kanamycin.

Mouse Leukemia L1210 = assay: Antitumor activity against mouse leukemia L1210 in vivo; design: species or system mouse (female CDF1); conditions: i.p. once a day for 5 consecutive days; for max (T/C): L1210, mean survival time, at optimum dose; for Opt. dose: L1210, daily amount giving the max (T/C); for LD50: L1210-bearing female CDF1 mice
Experimental: Test of Antitumor Activity Against Mouse Leukemia L1210 in vivo
1×10^5 mouse leukemia L1210 cells were inoculated into the abdominal cavities of 6-week-old female CDF1 mice. From the next day, a compound was administered to them intraperitoneally once a day for 5 consecutive days. Mice of a compound-non-treated group (control group) were administered with physiological saline solution in the same manner. The mean survival time of the compound-treated group and the control group were measured and T/C was calculated from the equation (1): [formula]
In Table 4, max (T/C) means the maximum value of T/C and optimum dose (Opt. dose) means a daily administration amount giving the max (T/C), namely, an optimum daily administration amount.

[2] = tested on: Mouse Lewis Lung Carcinoma; assay: Antitumor activity against mouse Lewis lung carcinoma in vivo; design: species or system mouse (male BDF1); conditions: i.p. once a day for 5 consecutive days; for max (T/C) / Opt. dose: Lewis lung carcinoma; for max (T/C): median survival time, at optimum dose; for Opt. dose: daily amount giving the max (T/C)
Experimental: Test of Antitumor Activity Against Mouse Lewis Lung Carcinoma
1×10^6 mouse Lewis lung carcinoma cells were inoculated into the abdominal cavities of 6-week-old male BDF1 mice. From the next day, a compound was administered to them intraperitoneally once a day for 5 consecutive days. Mice of compound-non-treated group (control group) were administered with physiological saline solution in the same manner. From the median survival time of the compoundtreated group and the control group, T/C was calculated according to the following equation (2): [formula]
In Table 5, max (T/C), and Opt. dose and LD50 mean the same ones in Table 4, respectively.

[3] = tested on: mouse Lewis lung carcinoma (LL) cells; assay: Growth inhibitory activity against cultured tumor cells, LL; type: cell-based; conditions: Tumor cell LL; RPMI 1640, 10% fetal calf serum, 100 μg/ml Kanamycin
Experimental: as §1, §2

[4] = tested on: cis-Platin resistant mouse leukemia P388 cells; assay: Growth inhibitory activity against cis-Platin resistant tumor cells, P388; type: cell-based; conditions: Tumor cell P388; ratio of IC50 for cis-Platin resistant cells to IC50 for non-resistant cells
Description: (§3) 1×10^5 mouse leukemia L1210 cells or 1×10^5 mouse leukemia P388 cells were inoculated into the abdominal cavities of CDF1 female mice. […] After 5 days, their tumor cells were inoculated to the abdominal cavities of other CDF1 female mice, and the same treatment was applied.

[5] = mouse, in vivo, ip
Description: A compound was singly administered to 6-week-old male CDF1 mice intraperitoneally.

[6] = tested on: cis-Platin resistant mouse leukemia L1210 cells; assay: Growth inhibitory activity against cis-Platin resistant tumor cells, L1210; type: cell-based; conditions: Tumor cell L1210; ratio of IC50 for cis-Platin resistant cells to IC50 for non-resistant cells
Description: as §3

[7] = cis-Platin, prior art description; cited from earlier work

Molecule	Solubility in water [mg/mL]	IC50 [1] [µg/mL]	max (T/C) (Mouse Leukemia L1210)	Opt. dose (Mouse Leukemia L1210) [mg/kg]	max (T/C) [2]	LD50 ([2]; Lewis lung carcinoma-bearing male BDF1 mice) [mg/kg]	Opt. dose [2] [mg/kg]	IC50 [3] [µg/mL]	IC50 R/IC50 [4]	Body weight ratio [5]	IC50 R/IC50 [6]	dissolving in water (in words) [7]	Solubility in physiological saline solution (physiological saline) [mg/ml]	LD50 (Mouse Leukemia L1210) [mg/kg]
cis-Diethylmalonato-2,3-dimethyl-1,4-butanediamine Platinum [Compound No. 8]	> 15	–	–	–	–	–	–	–	–	–	–	–	–	–
cis-Cyclobutane-1,1-dicarboxylato-2,3-dimethyl-1,4-butanediamine Platinum [Compound No. 4]	–	1.01	328	32.0	144	48.0	32.0	2.10	–	–	–	–	–	–
cis-Malonato-2,3-dimethyl-1,4-butanediamine Platinum [Compound No. 3]	> 30	0.27	400	16.0	234	–	32.0	0.95	4.6	1.00	1.3	–	–	–
N.N.[Cl][Pt][Cl] [cis-Platin, cis-dichlorodiammineplatinum, reference compound]	–	–	–	4	–	–	–	–	–	–	–	dissolving in water slowly	–	–
cis-Ethylmalonato-2,3-dimethyl-1,4-butanediamine Platinum [Compound No. 7]	> 20	–	–	–	–	–	–	–	–	–	–	–	–	–
cis-Dichloro-2,3-dimethyl-1,4-butanediamine Platinum [Compound No. 1]	–	0.04	323	2.0	–	–	–	0.43	–	0.79	–	–	> 2	3.0
cis-Dimethylmalonato-2,3-dimethyl-1,4-butanediamine Platinum [Compound No. 5]	> 20	0.40	245	32.0	–	–	–	1.06	6.2	0.89	1.4	–	–	–
cis-Oxalato-2,3-dimethyl-1,4-butanediamine Platinum [Compound No. 2]	> 3	0.11	296	4.0	–	–	–	0.65	–	0.77	–	–	–	7.2
cis-4-Oxacyclohexane-1,1-dicarboxylato-2,3-dimethyl-1,4-butanediamine Platinum [Compound No. 6]	> 20	0.11	–	–	–	–	–	1.06	–	–	–	–	–	–
